Each structure is given as a SMILES string. pIC50, pKi: −log10 of the molar value. “And” between values parts separate entries of the source, which are not always exact repeats. Equal values may be shown once.

One data set concerns P. vivax field isolates. Briefly: In vitro assay against P. vivax field isolates. Format: cell-based. Particulars: for pIC50: 10 field isolates from the Thai–Burmese border, mean, read-out: P. vivax IC50, field isolates. From the text: Ten P. vivax isolates were collected from June to July 2010 from malaria patients attending the Shoklo Malaria Research Unit (SMRU) clinics, Mae Sot region of the Tak Province in north-western Thailand under the ethical guidelines in the approved protocol OXTREC 027-05 (Centre for Clinical Vaccinology and Tropical Medicine, University of Oxford, Oxford, UK). These samples were collected from patients with no prior antimalarial therapy and with microscopically confirmed P. vivax. After written consent, blood samples were collected by venepuncture in 5 mL volume lithium heparinized tubes, which were then transported to the laboratory at SMRU within 5 h of collection. The ten isolates were chosen for testing because the majority (>80%) of the parasites were at the mid trophozoite stage (around 20 h post invasion) and no schizonts were detected.

The next data set relates to P. falciparum W-2 (CQ-R). Also on record: method as in PMID 22901673. Conditions: 72 h incubation, pLDH method, mean of 3 experiments; data already published; cited from earlier work.
The nature of data set [1]: Pharmacokinetics in CD-1 mice after oral administration. The class given is in vivo, mouse. Particulars: CD-1 mice, 10 mg/kg oral, single dose in SSV, plasma. As for the experimental part:
Samples from the pharmacokinetic studies were analyzed under the following conditions: UPLC interfaced with a Premiere XE triple Quadrupole, Waters. A gradient from 2 to 100% (Water, MeOH, 5 mM Ammonium Acetate) over 1.3 min was used in Acquity HSS T3 (dimensions 2.1 by 50 mm, 1.8 µm column, 40 °C temperature, flow rate 0.5 mL/min). Detection was performed in MRM (ESI positive, Q1/Q3 330.16/152.00, Cone Voltage 45 V; Extractor 5 V; Capillary 3.4 kV). The limit of detection was 1 ng/mL. Pharmacokinetic parameters were determined by Non-Compartmental Analysis, using the linear trapezoidal rule and uniform weight.
Pharmacokinetic data were collected in mice by testing the racemate and the enantiomers at the same single dose, and vehicle-utilized for in vivo studies (see composition in paragraph 4.4). Briefly, male CD-1 mice (Charles River Laboratories) weighing 18–22 g received single dose (10 mg/kg) oral administrations of the AM1 racemate and single enantiomers, each dissolved in SSV. For each experiment, twenty-four mice/dose and three mice/time-point were used. Blood samples were collected at eight selected time-points (15, 30 and 60 min; 2, 4, 6, 8 and 24 h) under ethyl ether anaesthesia. The heparinized tubes containing blood samples were immediately placed on ice and centrifuged, and the supernatant collected and frozen at −80 °C prior to analysis. Pharmacokinetic plasma samples (spiked with internal standard) were filtered (Sirocco filter plate, Waters) under vacuum, and 5 µL analysed by LC-MS/MS.

The target in another data set is T1, hERG (Homo sapiens, UniProt Q12809).
T1 construct: expressed in transfected cells
Briefly: hERG [3H]-astemizole radioligand binding assay. Conditions: HEK293 cell membranes, preliminary experiments. As for the experimental part: [^3H]-astemizole (PerkinElmer ITALIA Spa, Milan, Italy) radioligand binding assays were performed in HEK293 cells membranes stably transfected with the hERG (U04270); non-specific binding was evaluated in the presence of an excess of 10 µM cold astemizole. Experiments were performed at 22 °C for 60 min in triplicate and compounds tested in a range from 0.03 µM to 30 µM. Two separate experiments were performed and data analyzed with non-linear fitting using a four-parameter logistic.
On the technique in general: The hERG channel carries a current that helps repolarise heart muscle cells.

The test system of a further data set is P. berghei ANKA. Briefly: Standard four-day suppressive test, P. berghei. Format: in vivo. Conditions: CD1 mice, oral, once a day for four days, parasitaemia on day 4. As for the experimental part: Groups of five CD1 mice were inoculated i.v. with 4 × 10^6 infected erythrocytes/mice. The compound, dissolved in standard suspending formula (SSV) (0.5% sodium carboxymethylcellulose, 0.5% benzyl alcohol, 0.4% Tween 80, 0.9% NaCl), was administered orally, once a day for a period of four days, starting two hours post-infection. […] Parasitaemia was determined by microscopic examination of Giemsa-stained blood films taken on day four, processed using MICROSOFT® EXCEL spreadsheets (Microsoft Corp., Redmond, WA, USA), and expressed as percentages of inhibition from the arithmetic mean parasitaemias of each group in relation to the untreated group. ED50 and ED90 values were calculated by GraphPad Prism 6 (GraphPad Software Inc, La Jolla, CA, USA).

In another data set the test system is P. falciparum D10 (CQ-S). Further details: method as in PMID 22901673. Particulars: 72 h incubation, pLDH method, mean of 3 experiments; data already published; cited from earlier work.
A short description of data set [2]: Microsome stability and metabolism studies, mouse. The class given is in vitro ADME. Also on record: key: +: Metabolic Products Detected In Vitro and In Vivo; ND: Not detectable. Conditions: (−)-AM1 1 μM, at 30 min. The method, then: (§1) Samples from the metabolic stability and metabolism studies were analyzed under the following conditions: UPLC interfaced with a Premiere XE triple Quadrupole Waters for stability studies, and Bruker Daltonics Ion Trap HCT Ultra for metabolic studies. A gradient from 2% to 100% (Water, MeOH, 5 mM Ammonium Acetate) over 2 min (stability) or 12 min (metabolism) in a C18 BEH (dimensions 1 by 50 mm for stability and 2.1 by 100 mm for metabolism, 1.7 µm column, 45 °C temperature, flow rate 0.5 mL/min) was used. For stability studies, the detection was performed in MRM (ESI positive, Q1/Q3 330.16/152.00, Cone Voltage 45 V; Extractor 5 V; Capillary 3.4 kV), while for metabolism studies, analysis was performed in Auto MS/MS mode (ESI positive; Capillary 109 V; Dry Temp 350 °C; Nebulizer 30 psi; Dry gas 10 L/min; HV capillary 500 V; Mass Accu time 500 µs; Mass range MS scan 100–600 amu, MS/MS 50–450 amu).
(§2) For stability and metabolism studies, test compounds were dissolved in DMSO, diluted at the final concentration of 1 µM, and pre-incubated in duplicate for 10 min at 37 °C in potassium phosphate buffer, pH 7.4, 3 mM MgCl2, with rat, mouse, and human hepatic microsomes (Xenotech Europe, Pfungstadt, Germany) at the final concentration of 0.5 mg/mL. The reaction was then started by adding the cofactor mixture of NADP, Glc6P, and G6P-DH, in the presence of UDPGA 1 mM in human microsomes to promote glucuronide formation. Acetonitrile (with verapamil as internal standard) was added to the samples at the times time 0 and 30 min to stop the reaction. Samples were then centrifuged and the supernatants analysed and quantified by LC-MS/MS. Reference compounds of known metabolic stability, 7-ethoxycoumarin (7-EC) and propranolol, were used as controls.
(§3) The percentage of the area of test compounds remaining after 30 min incubation was calculated in respect to the area of compounds at time = 0 min. […] Samples were re-analyzed by acquiring the daughter scan of the potential metabolites found during the full scan acquisition.

Data set [3] is described as follows: Microsome stability and metabolism studies, human. Format: in vitro ADME. Particulars: (−)-AM1 1 μM, at 30 min. Also on record: key: +: Metabolic Products Detected In Vitro and In Vivo; ND: Not detectable. The method, then: (§4) Samples from the metabolic stability and metabolism studies were analyzed under the following conditions: UPLC interfaced with a Premiere XE triple Quadrupole Waters for stability studies, and Bruker Daltonics Ion Trap HCT Ultra for metabolic studies. A gradient from 2% to 100% (Water, MeOH, 5 mM Ammonium Acetate) over 2 min (stability) or 12 min (metabolism) in a C18 BEH (dimensions 1 by 50 mm for stability and 2.1 by 100 mm for metabolism, 1.7 µm column, 45 °C temperature, flow rate 0.5 mL/min) was used. […]
For stability and metabolism studies, test compounds were dissolved in DMSO, diluted at the final concentration of 1 µM, and pre-incubated in duplicate for 10 min at 37 °C in potassium phosphate buffer, pH 7.4, 3 mM MgCl2, with rat, mouse, and human hepatic microsomes (Xenotech Europe, Pfungstadt, Germany) at the final concentration of 0.5 mg/mL. […] Samples were then centrifuged and the supernatants analysed and quantified by LC-MS/MS. […]
as §3

The nature of data set [4]: Metabolites in mouse plasma after oral treatment. Format: in vivo. Further details: key: +: Metabolic Products Detected In Vitro and In Vivo; ND: Not detectable. Particulars: after 50 mg/kg (−)-AM1 oral gavage, at 120 min. The method, then:
A representative chromatogram in the mouse and the MS spectra are shown in Figure S1 (Supplementary Materials), while the proposed structures of metabolites in all the species, together with the retention times, are shown in Table 3. In the same table, the metabolites found in mouse plasma after 50 mg/kg oral treatment are included. The retention times and [M + H]^+ of the metabolites are the same for all three species.
The parent [M + H]^+ = 330 and the metabolites [M + H]^+ = 346 and [M + H]^+ = 344 were also detected in the mouse plasma samples collected after oral treatment of CD1 mice with 50 mg/kg of (−)-AM1 (Figure S4).
as §4

Data set [5] can be described thus: Microsome stability and metabolism studies, rat. The class given is in vitro ADME. Also on record: key: +: Metabolic Products Detected In Vitro and In Vivo; ND: Not detectable. Conditions: (−)-AM1 1 μM, at 30 min. As for the experimental part: as §1, §2, §3
Data set [6] has as its system chloroquine-sensitive and resistant P. falciparum strains. Briefly: In vitro antimalarial activity, range over the strain panel. Format: cell-based. Conditions: D10, W-2, FCR1, FCR3, TM91C235; range over strains and forms; read-out: IC50 range against CQ-S and CQ-R P. falciparum strains.
On the set-up of data set [7]: method as in PMID 19651905. Conditions: pH 7.4; cited from earlier work.

T1 sequence (Q12809 whole entry): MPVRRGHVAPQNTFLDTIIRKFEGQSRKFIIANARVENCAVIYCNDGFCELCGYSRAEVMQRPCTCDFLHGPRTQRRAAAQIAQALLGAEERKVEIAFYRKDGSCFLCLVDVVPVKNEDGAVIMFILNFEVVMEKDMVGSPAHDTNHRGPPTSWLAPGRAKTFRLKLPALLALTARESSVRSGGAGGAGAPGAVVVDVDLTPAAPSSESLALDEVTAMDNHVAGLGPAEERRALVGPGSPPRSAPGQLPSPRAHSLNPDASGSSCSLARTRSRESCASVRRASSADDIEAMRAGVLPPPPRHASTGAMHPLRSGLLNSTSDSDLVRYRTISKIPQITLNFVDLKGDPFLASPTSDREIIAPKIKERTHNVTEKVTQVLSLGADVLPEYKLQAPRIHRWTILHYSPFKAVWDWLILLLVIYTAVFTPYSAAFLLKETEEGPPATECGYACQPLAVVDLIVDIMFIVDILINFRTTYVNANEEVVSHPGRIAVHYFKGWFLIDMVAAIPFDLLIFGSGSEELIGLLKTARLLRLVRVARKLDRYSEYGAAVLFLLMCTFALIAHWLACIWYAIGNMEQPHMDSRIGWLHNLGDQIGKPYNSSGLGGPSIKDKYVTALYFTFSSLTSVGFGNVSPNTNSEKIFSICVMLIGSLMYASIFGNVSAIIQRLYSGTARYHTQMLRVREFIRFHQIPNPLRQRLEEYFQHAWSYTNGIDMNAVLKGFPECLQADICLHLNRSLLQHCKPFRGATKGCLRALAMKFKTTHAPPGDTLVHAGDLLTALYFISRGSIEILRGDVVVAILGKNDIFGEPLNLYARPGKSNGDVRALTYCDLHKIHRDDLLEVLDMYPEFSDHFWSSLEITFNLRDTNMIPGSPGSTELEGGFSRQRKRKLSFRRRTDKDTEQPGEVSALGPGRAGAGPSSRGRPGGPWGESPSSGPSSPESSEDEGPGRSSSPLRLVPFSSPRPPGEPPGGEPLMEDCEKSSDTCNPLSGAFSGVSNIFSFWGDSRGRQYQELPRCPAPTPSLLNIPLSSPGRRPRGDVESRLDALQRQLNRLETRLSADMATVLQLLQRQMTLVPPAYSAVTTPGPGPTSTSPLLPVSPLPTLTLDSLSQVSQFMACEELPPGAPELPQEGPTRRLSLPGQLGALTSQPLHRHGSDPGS

One may read the pIC50 as the IC50 on a negative log10 scale, so that one unit is a factor of ten. The term MRT last denotes the average time that molecules of a dose stay in the body. A word on the Tmax: it is the time at which the peak concentration occurs. One may read the pKi as −log10 of the Ki, conventionally taken in molar units. `Clc1ccc2c(NCC3CCCN4CCCCC34)ccnc2c1` (racemic) [(±)-AM1, 7-chloro-4-(N-lupinyl)aminoquinoline]: in the data set on P. vivax field isolates, the pIC50 was 7.53. For the same compound, in the data set on P. vivax field isolates (10 field isolates, times higher than CQ), the “potency against P. vivax field isolates relative to CQ” value is reported as “about 3 times”. For the same compound, the pIC50 with P. falciparum W-2 (CQ-R) was 7.45. Further, in data set [1], the MRT last amounted to 3.27 h and the Tmax came out at 0.5 h. For the same compound, in [1] (10 mg/kg), the AUC last was 19.5 min·µM and 6421 min·ng/mL. For the same compound, the pKi on hERG was 6.10 to 6.30. For the same compound, in the data set on P. berghei ANKA, the “P. berghei ED50 (95% CI)” value is given as 2.77 (1.26–4.29) mg/kg and the “P. berghei ED90 (95% CI)” value was 12.58 (7.69–17.46) mg/kg. Further, the pIC50 in the data set on P. falciparum D10 (CQ-S) was 7.79.
Regarding `[O-][NH+](CC1CCCN2CCCCC12)c1ccnc2cc(Cl)ccc12` (centres unmarked) [C00003], the “Metabolic products detected, in vitro microsomes, mouse” value in [2] is “+”. Moreover, the “Metabolic products detected, in vitro microsomes, human” value in [3] is reported as “+”. The “Metabolic products detected, in vivo plasma levels, mouse” value in data set [4] is “+”. In addition, the “Metabolic products detected, in vitro microsomes, rat” value in data set [5] is “+”.
As for `Clc1ccc2c(NCC3CCCN4CCCCC34)ccnc2c1` (centres unmarked) [AM1, 7-chloro-4-(N-lupinyl)aminoquinoline], the pIC50 was 7.28 to 7.80 in data set [6] and 7.54 with P. vivax field isolates. Besides, the LogD7.4 in data set [7] is given as 2.26.

(Values after PMC6149971, “In Vivo and In Vitro Activities and ADME-Tox Profile of a Quinolizidine-Modified 4-Aminoquinoline: A Potent Anti-P. falciparum and Anti-P. vivax Blood-Stage Antimalarial” (Molecules : A Journal of Synthetic Chemistry and Natural …, 2017).)
